Measurements taken from ChEMBL document CHEMBL5338718, “Design and exploration of gut-restricted bifunctional molecule with TGR5 agonistic and DPP4 inhibitory effects for treating ulcerative colitis” (Eur J Med Chem, 2022).
pEC50, pIC50: −log10 of the molar value. The source made the active and inactive calls. The calls are words filed in the database; no cut-off is given here.

Experiments:
[1] = Cmax in overnight-fasted ICR mouse plasma at 30 mg/kg, po and measured upto 8 hrs by LC-MS/MS analysis; assay type: ADME, organism-based; design: dose 30 mg/kg, time < 8 hrs, route po
Mus musculus [2] = assay: Anti-colitis activity against DSS-induced ulcerative colitis BALB/c mouse model assessed as decrease in inflammatory cell infiltration at 30 mg/kg,po for 10 days by Hematoxylin and eosin staining based microscopy; assay type: functional, organism-based; conditions: time 10.0 day
Mus musculus [3] = assay: Anti-colitis activity against DSS-induced ulcerative colitis BALB/c mouse model assessed as reduction in body weight loss by measuring DAI score at 30 mg/kg,po and measured after 5 to 10 days; assay type: functional, organism-based; conditions: time 5-10 day
[4] = Apparent permeability across basolateral to apical side in human Caco-2 cells at 20 uM and measured upto 95 mins by LC-MS/MS analysis; assay type: ADME, cell-based
Mus musculus [5] = assay: Induction of gut restriction in overnight fasted ICR mouse assessed as effect on gallbladder-filling by measuring bile weight at 30 to 200 mg/kg, po and measured after 4 hrs by Vernier caliper analysis; assay type: functional, organism-based; conditions: dose 30-200 mg/kg
[6] = biological target: T1, G-protein coupled bile acid receptor 1 (Mus musculus, UniProt Q80SS6); assay: Agonist activity at mouse TGR5 expressed in human HEK293 cells co-expressing CRE-driven luciferase reporter gene assessed as luciferase activity incubated for 5.5 hrs by Steady-Glo based luciferase assay; assay type: functional, cell-based
T1 sequence (Q80SS6 whole entry): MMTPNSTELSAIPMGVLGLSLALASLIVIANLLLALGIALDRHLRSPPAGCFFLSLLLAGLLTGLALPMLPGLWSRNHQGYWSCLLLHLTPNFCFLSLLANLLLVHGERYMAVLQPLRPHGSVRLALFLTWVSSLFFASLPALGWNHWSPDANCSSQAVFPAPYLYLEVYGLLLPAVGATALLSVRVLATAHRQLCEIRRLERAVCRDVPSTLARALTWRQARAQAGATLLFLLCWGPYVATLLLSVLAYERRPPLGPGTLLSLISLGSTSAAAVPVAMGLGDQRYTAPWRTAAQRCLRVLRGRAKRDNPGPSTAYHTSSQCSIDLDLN

[7] = Cmax in overnight-fasted ICR mouse ileum at 30 mg/kg, po and measured upto 8 hrs by LC-MS/MS analysis; assay type: ADME, organism-based; design: dose 30 mg/kg, time < 8 hrs, route po
Mus musculus [8] = assay: Anti-colitis activity against DSS-induced ulcerative colitis BALB/c mouse model assessed as reduction in fecal occult blood by measuring DAI score at 30 mg/kg,po and measured after 5 to 10 days; assay type: functional, organism-based; conditions: time 5-10 day
Mus musculus [9] = assay: Anti-colitis activity against DSS-induced ulcerative colitis BALB/c mouse model assessed as suppression of DSS induced weight loss at 30 mg/kg,po for 10 days; assay type: functional, organism-based; conditions: time 10.0 day
Mus musculus [10] = assay: Anti-colitis activity against DSS-induced ulcerative colitis BALB/c mouse model assessed as recovery of tissue damage at 30 mg/kg,po for 10 days by Hematoxylin and eosin staining based microscopy; assay type: functional, organism-based; conditions: time 10.0 day
[11] = Apparent permeability across apical to basolateral side in human Caco-2 cells at 20 uM and measured upto 95 mins by LC-MS/MS analysis; assay type: ADME, cell-based
Mus musculus [12] = assay: Induction of gut restriction in overnight fasted ICR mouse assessed as effect on gallbladder-filling by measuring gallbladder volume at 30 to 200 mg/kg, po and measured after 4 hrs by Vernier caliper analysis; assay type: functional, organism-based; conditions: dose 30-200 mg/kg
Mus musculus [13] = assay: In vivo inhibition of DDP4 in ICR mouse assessed as decrease in enzyme activity in ileum at 50 mg/kg,po and measured after 8 hrs using Gly-Pro-AMC as substrate by fluorescence based microplate reader assay; assay type: functional, organism-based
Mus musculus [14] = assay: Anti-colitis activity against DSS-induced ulcerative colitis BALB/c mouse model assessed as suppression of DSS induced diarrhea at 30 mg/kg,po for 10 days; assay type: functional, organism-based; conditions: time 10.0 day
[15] = biological target: T2, G-protein coupled bile acid receptor 1 (Homo sapiens, UniProt Q8TDU6); assay: Agonist activity at human TGR5 expressed in human HEK293 cells co-expressing CRE-driven luciferase reporter gene assessed as luciferase activity incubated for 5.5 hrs by Steady-Glo based luciferase assay; assay type: functional, cell-based
T2 sequence (Q8TDU6 whole entry): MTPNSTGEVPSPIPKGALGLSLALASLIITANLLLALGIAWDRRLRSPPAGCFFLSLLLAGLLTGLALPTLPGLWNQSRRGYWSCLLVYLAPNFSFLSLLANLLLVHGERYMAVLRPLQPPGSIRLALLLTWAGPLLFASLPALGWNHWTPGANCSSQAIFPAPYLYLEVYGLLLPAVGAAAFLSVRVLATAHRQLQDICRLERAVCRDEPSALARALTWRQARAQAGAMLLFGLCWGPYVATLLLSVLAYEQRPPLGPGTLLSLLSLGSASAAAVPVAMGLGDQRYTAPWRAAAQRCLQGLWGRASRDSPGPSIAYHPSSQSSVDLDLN

[16] = Cmax in overnight-fasted ICR mouse Gall bladder at 30 mg/kg, po and measured upto 8 hrs by LC-MS/MS analysis; assay type: ADME, organism-based; design: dose 30 mg/kg, time < 8 hrs, route po
Mus musculus [17] = assay: Anti-colitis activity against DSS-induced ulcerative colitis BALB/c mouse model assessed as decrease in histological score at 30 mg/kg,po for 10 days by Hematoxylin and eosin staining based microscopy; assay type: functional, organism-based; conditions: time 10.0 day
Mus musculus [18] = assay: In vivo inhibition of DDP4 in ICR mouse assessed as decrease in enzyme activity in serum at 200 mg/kg,po and measured at 4 hrs using Gly-Pro-AMC as substrate by fluorescence based microplate reader assay; assay type: functional, organism-based
Dipeptidyl peptidase 4 = Dipeptidyl peptidase 4 (Mus musculus, UniProt P28843); assay: Inhibition of mouse serum DPP4 assessed as cleavage of substrate by measuring AMC release using Gly-Pro-AMC as substrate by fluorescence based microplate reader assay; assay type: cell-free
Chain of Dipeptidyl peptidase 4 (P28843 whole entry): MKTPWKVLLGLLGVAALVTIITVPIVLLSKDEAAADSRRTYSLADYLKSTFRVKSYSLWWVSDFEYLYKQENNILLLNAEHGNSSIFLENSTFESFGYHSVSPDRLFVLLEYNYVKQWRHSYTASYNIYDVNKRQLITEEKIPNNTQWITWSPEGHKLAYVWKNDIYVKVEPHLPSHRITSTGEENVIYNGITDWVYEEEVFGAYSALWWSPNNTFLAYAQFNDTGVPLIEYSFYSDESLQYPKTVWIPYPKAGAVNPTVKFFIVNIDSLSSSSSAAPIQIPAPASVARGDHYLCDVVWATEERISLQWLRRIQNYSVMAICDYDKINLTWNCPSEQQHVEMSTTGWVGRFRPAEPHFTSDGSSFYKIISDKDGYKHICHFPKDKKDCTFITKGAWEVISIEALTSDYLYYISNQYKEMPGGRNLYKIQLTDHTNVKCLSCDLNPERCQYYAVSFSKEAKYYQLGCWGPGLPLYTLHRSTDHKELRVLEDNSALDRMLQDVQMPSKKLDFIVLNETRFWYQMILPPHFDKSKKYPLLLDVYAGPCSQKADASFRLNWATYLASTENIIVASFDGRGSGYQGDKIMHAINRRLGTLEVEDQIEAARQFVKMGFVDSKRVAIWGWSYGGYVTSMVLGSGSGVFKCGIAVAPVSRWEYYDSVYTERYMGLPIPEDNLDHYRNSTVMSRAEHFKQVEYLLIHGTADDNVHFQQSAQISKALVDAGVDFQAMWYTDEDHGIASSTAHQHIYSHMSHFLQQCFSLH

Mus musculus [19] = assay: In vivo inhibition of DDP4 in ICR mouse assessed as decrease in enzyme activity in serum at 200 mg/kg,po and measured at 2 hrs using Gly-Pro-AMC as substrate by fluorescence based microplate reader assay; assay type: functional, organism-based
Mus musculus [20] = assay: In vivo inhibition of DDP4 in ICR mouse assessed as decrease in enzyme activity in serum at 200 mg/kg,po and measured after 8 hrs using Gly-Pro-AMC as substrate by fluorescence based microplate reader assay; assay type: functional, organism-based
Mus musculus [21] = assay: In vivo inhibition of DDP4 in ICR mouse assessed as decrease in enzyme activity in ileum at 200 mg/kg,po and measured after 8 hrs using Gly-Pro-AMC as substrate by fluorescence based microplate reader assay; assay type: functional, organism-based
[22] = Water solubility at pH 6.8; assay type: physicochemical
Mus musculus [23] = assay: Anti-colitis activity against DSS-induced ulcerative colitis BALB/c mouse model assessed as suppression of DSS induced fecal occult blood at 30 mg/kg,po for 10 days; assay type: functional, organism-based; conditions: time 10.0 day
Mus musculus [24] = assay: Anti-colitis activity against DSS-induced ulcerative colitis BALB/c mouse model assessed as reduction in stool softness by measuring DAI score at 30 mg/kg,po and measured after 5 to 10 days; assay type: functional, organism-based; conditions: time 5-10 day
Mus musculus [25] = assay: In vivo agonist activity at TGR5 in overnight fasted ICR mouse assessed as increase in GLP-1 activity in serum at 100 mg/kg,po preincubated with sitagliptin at 30 mg/kg,po for one hr followed by compound addition and measured after 8 hrs by ELISA; assay type: functional, organism-based
Mus musculus [26] = assay: In vivo inhibition of DDP4 in ICR mouse assessed as decrease in enzyme activity in ileum at 25 mg/kg,po and measured after 8 hrs using Gly-Pro-AMC as substrate by fluorescence based microplate reader assay; assay type: functional, organism-based
Mus musculus [27] = assay: Anti-colitis activity against DSS-induced ulcerative colitis BALB/c mouse model assessed as recovery of colon length at 30 mg/kg,po for 10 days; assay type: functional, organism-based; conditions: time 10.0 day
[28] = Water solubility at pH 7.4; assay type: physicochemical

CC1C(=O)N(CC(=O)N(CCOCCOCCOCCOCCOCCOCCOCCOCCN(CC(=O)O)C(=O)CCc2cc(Cl)c(Oc3ccsc3C(=O)N3CCN(C4CC4)c4ccccc43)cc2Cl)CC(=O)O)CCCN1C(=O)C[C@H](N)Cc1cc(F)c(F)cc1F (mixture of isomers)
Cmax [1]: 8.3 ng/mL | Activity (Mus musculus [2]): Active | Activity (Mus musculus [3]): Active | Papp B→A at 1.583 h, 20 µM [4]: 0.01 ×10⁻⁶ cm/s | Activity (Mus musculus [5]): Active | pEC50 [6]: 8.47 | Cmax [7]: 11700 ng/mL | Activity (Mus musculus [8]): Active | Activity (Mus musculus [9]): Active | Activity (Mus musculus [10]): Active | Papp A→B at 1.583 h, 20 µM [11]: 0.01 ×10⁻⁶ cm/s | Activity (Mus musculus [12]): Active | inhibition (Mus musculus [13]): Active | Activity (Mus musculus [14]): Active | pEC50 [15]: 7.31 | Cmax [16]: 820 ng/mL | Activity (Mus musculus [17]): Active | inhibition (Mus musculus [18]): inactive | pIC50 (Dipeptidyl peptidase 4): 7.67 | inhibition (Mus musculus [19]): inactive | inhibition (Mus musculus [20]): Active | inhibition (Mus musculus [21]): Active | solubility [22]: > 100 µM | Activity (Mus musculus [23]): Active | Activity (Mus musculus [24]): Active | Activity (Mus musculus [25]): Active | inhibition (Mus musculus [26]): Active | Activity (Mus musculus [27]): Active | solubility [28]: > 100 µM
